Consider three sequences from patent US20070128217A1 (priority 2003, published 2007).

Assay [1] deals with antibodies in sera from SARS patients (sera 1a, 1b, 2, 6, 37, 62, London, SARS-yellow, SARS-green). It is filed as binding, human. Also on record: Binding of serum 6 to linear peptides of protein X1 of SARS-CoV Urbani / Binding of serum 37 to linear peptides of protein X1 of SARS-CoV Urbani / Binding of serum 6 to looped/cyclic peptide (PEPSCAN-ELISA) / Binding of serum 37 to looped/cyclic peptide (PEPSCAN-ELISA) / Binding of serum 37 to looped/cyclic peptides of protein X1 of SARS-CoV Urbani / Binding of serum 6 to linear peptides of protein X2 / Binding of serum 37 to linear peptides of protein X2 / Binding of serum 37 to looped/cyclic peptides of protein X2 of SARS-CoV Urbani / Binding of serum 6 to linear peptides of protein M of SARS-CoV Urbani / Binding of serum 37 to linear peptides of protein M of SARS-CoV Urbani / Binding of serum 6 to looped/cyclic peptides of protein M of SARS-CoV Urbani / Binding of serum 37 to looped/cyclic peptides of protein M of SARS-CoV Urbani / Binding of serum 6 to linear peptides of protein X3 of SARS-CoV Urbani / Binding of serum 37 to linear peptides of protein X3 of SARS-CoV Urbani / Binding of serum 37 to looped/cyclic peptides of protein X3 of SARS-CoV Urbani / Binding of serum 6 to linear peptides of protein X4 of SARS-CoV Urbani / Binding of serum 37 to linear peptides of protein X4 of SARS-CoV Urbani / Binding of serum 37 to looped/cyclic peptides of protein X4 of SARS-CoV Urbani / Binding of serum 6 to linear peptides of protein X5 of SARS-CoV Urbani / Binding of serum 37 to linear peptides of protein X5 of SARS-CoV Urbani / Binding of serum 37 to looped/cyclic peptides of protein X5 of SARS-CoV Urbani / Binding of serum 6 to linear peptides of protein N of SARS-CoV Urbani / Binding of serum 37 to linear peptides of protein N of SARS-CoV Urbani / Binding of serum 6 to linear peptide (PEPSCAN-ELISA) / Binding of serum 1a to looped/cyclic peptides of protein N of SARS-CoV Urbani / Binding of serum 1b to looped/cyclic peptides of protein N of SARS-CoV Urbani / Binding of serum 2 to looped/cyclic peptides of protein N of SARS-CoV Urbani / Binding of serum 6 to looped/cyclic peptides of protein N of SARS-CoV Urbani / Binding of serum 37 to looped/cyclic peptides of protein N of SARS-CoV Urbani / Binding of serum 62 to looped/cyclic peptides of protein N of SARS-CoV Urbani / Binding of serum London to looped/cyclic peptides of protein N of SARS-CoV Urbani / Binding of serum SARS-green to looped/cyclic peptides of protein N of SARS-CoV Urbani: unit not given here.

Assay [2] relates to rabbit serum obtained by immunizing a rabbit with the SARS-CoV strain Frankfurt 1. It is filed as binding. Also on record: Binding of a rabbit serum to linear peptides / Binding of a rabbit serum to looped peptides / Rabbit serum linear peptides / Rabbit serum looped peptides / Binding of a rabbit serum to linear peptides of protein N of SARS-CoV Urbani (Rabbit serum linear peptides) / Binding of a rabbit serum to looped/cyclic peptides of protein N of SARS-CoV Urbani (Rabbit serum looped peptides): unit not given here.

The subject of assay [3] is control sera (pooled serum of ten healthy LUMC hospital workers; commercial negative donor pooled serum from the Dutch bloodbank). It is filed as binding, human.

With VNSVLLFLAFVVFLL, in assay [1], the “Binding of serum 1a to linear peptides of protein E of SARS-CoV Urbani” value is reported as 0.9, the “Binding of serum 1a to looped/cyclic peptides of protein E of SARS-CoV Urbani” value is reported as 0.6, the “Binding of serum 1b to linear peptides of protein E of SARS-CoV Urbani” value was determined as 0.1 and the “Binding of serum 1b to looped/cyclic peptides of protein E of SARS-CoV Urbani” value was 0.4. In addition, in assay [1], the “Binding of serum 2 to linear peptides of protein E of SARS-CoV Urbani” value is listed as 1.1, the “Binding of serum 2 to looped/cyclic peptides of protein E of SARS-CoV Urbani” value stood at 0.5, the “Binding of serum 6 to linear peptides of protein E of SARS-CoV Urbani” value came out at 0.6 and the “Binding of serum 6 to looped/cyclic peptides of protein E of SARS-CoV Urbani” value is recorded as 0.3. In assay [1], the “Binding of serum 37 to linear peptides of protein E of SARS-CoV Urbani” value was 0.5, the “Binding of serum 37 to looped/cyclic peptides of protein E of SARS-CoV Urbani” value came out at 0.6, the “Binding of serum 62 to linear peptides of protein E of SARS-CoV Urbani” value is recorded as 0.2 and the “Binding of serum 62 to looped/cyclic peptides of protein E of SARS-CoV Urbani” value stood at 0.7. In assay [1], the “Binding of serum London to linear peptides of protein E of SARS-CoV Urbani” value is on record as 1.4, the “Binding of serum London to looped/cyclic peptides of protein E of SARS-CoV Urbani” value came out at 0.3, the “Binding of serum SARS-green to linear peptides of protein E of SARS-CoV Urbani” value is listed as 0.7 and the “Binding of serum SARS-green to looped/cyclic peptides of protein E of SARS-CoV Urbani” value is recorded as 0.4. For the same sequence, in assay [1], the “Binding of serum SARS-yellow to linear peptides of protein E of SARS-CoV Urbani” value is reported as 0.6 and the “Binding of serum SARS-yellow to looped/cyclic peptides of protein E of SARS-CoV Urbani” value worked out at 0.6. In addition, in assay [2], the “Binding of a rabbit serum to linear peptides” value is reported as 0.2 and the “Binding of a rabbit serum to looped peptides” value came to 0.4. Further, in assay [3], the “Binding of Control Serum Blood-Bank to Looped peptides” value amounted to 0.5, the “Binding of Control serum Blood-bank to linear peptides” value stood at 0.5, the “Binding of Control serum LUMC to linear peptides” value was determined as 0.4 and the “Binding of Control serum LUMC to looped peptides” value worked out at 0.7.

For VDFQVTIAEILIIIM, in assay [1], the “Binding of serum 1a to linear peptides of protein X3 of SARS-CoV Urbani” value came to 0.8, the “Binding of serum 1a to looped/cyclic peptides of protein X3 of SARS-CoV Urbani” value is recorded as 0.7, the “Binding of serum 1b to linear peptides of protein X3 of SARS-CoV Urbani” value amounted to 0.5 and the “Binding of serum 1b to looped/cyclic peptides of protein X3 of SARS-CoV Urbani” value is on record as 0.4. In assay [1], the “Binding of serum 2 to linear peptides of protein X3 of SARS-CoV Urbani” value is recorded as 0.7, the “Binding of serum 2 to looped/cyclic peptides of protein X3 of SARS-CoV Urbani” value was found to be 0.6, the “Binding of serum 6 to linear peptides of protein X3 of SARS-CoV Urbani” value stood at 0.5 and the “Binding of serum 6 to looped/cyclic peptides of protein X3 of SARS-CoV Urbani” value stood at 0.3. For the same sequence, in assay [1], the “Binding of serum 37 to linear peptides of protein X3 of SARS-CoV Urbani” value is 0.5, the “Binding of serum 37 to looped/cyclic peptides of protein X3 of SARS-CoV Urbani” value is 0.6, the “Binding of serum 62 to linear peptides of protein X3 of SARS-CoV Urbani” value is recorded as 0.6 and the “Binding of serum 62 to looped/cyclic peptides of protein X3 of SARS-CoV Urbani” value is reported as 0.6. For the same sequence, in assay [1], the “Binding of serum London to linear peptides of protein X3 of SARS-CoV Urbani” value was 0.6, the “Binding of serum London to looped/cyclic peptides of protein X3 of SARS-CoV Urbani” value was 0.2, the “Binding of serum SARS-green to linear peptides of protein X3 of SARS-CoV Urbani” value was 0.4 and the “Binding of serum SARS-green to looped/cyclic peptides of protein X3 of SARS-CoV Urbani” value was 0.3. Further, in assay [1], the “Binding of serum SARS-yellow to linear peptides of protein X3 of SARS-CoV Urbani” value came out at 0.6 and the “Binding of serum SARS-yellow to looped/cyclic peptides of protein X3 of SARS-CoV Urbani” value worked out at 0.8. Also, in assay [2], the “Rabbit serum linear peptides” value was determined as 0.3 and the “Rabbit serum looped peptides” value was 0.3. Besides, in assay [3], the “Binding of Control Serum Blood-Bank to Looped peptides of the protein X3 of SARS-CoV Urbani” value is listed as 0.6, the “Binding of Control serum Blood-bank to linear peptides of the protein X3 of SARS-CoV Urbani” value is listed as 0.8, the “Binding of Control serum LUMC to linear peptides of the protein X3 of SARS-CoV Urbani” value was found to be 0.8 and the “Binding of Control serum LUMC to looped peptides of the protein X3 of SARS-CoV Urbani” value amounted to 0.8.

For LIVNSVLLFLAFVVF, in assay [1], the “Binding of serum 1a to linear peptides of protein E of SARS-CoV Urbani” value was found to be 0.8, the “Binding of serum 1a to looped/cyclic peptides of protein E of SARS-CoV Urbani” value turned out to be 0.5, the “Binding of serum 1b to linear peptides of protein E of SARS-CoV Urbani” value is on record as 0.6 and the “Binding of serum 1b to looped/cyclic peptides of protein E of SARS-CoV Urbani” value is 0.4. For the same sequence, in assay [1], the “Binding of serum 2 to linear peptides of protein E of SARS-CoV Urbani” value is given as 0.4, the “Binding of serum 2 to looped/cyclic peptides of protein E of SARS-CoV Urbani” value is listed as 0.5, the “Binding of serum 6 to linear peptides of protein E of SARS-CoV Urbani” value is 0.7 and the “Binding of serum 6 to looped/cyclic peptides of protein E of SARS-CoV Urbani” value is recorded as 0.4. Moreover, in assay [1], the “Binding of serum 37 to linear peptides of protein E of SARS-CoV Urbani” value was 0.6, the “Binding of serum 37 to looped/cyclic peptides of protein E of SARS-CoV Urbani” value is given as 0.5, the “Binding of serum 62 to linear peptides of protein E of SARS-CoV Urbani” value was determined as 0.6 and the “Binding of serum 62 to looped/cyclic peptides of protein E of SARS-CoV Urbani” value is listed as 0.6. For the same sequence, in assay [1], the “Binding of serum London to linear peptides of protein E of SARS-CoV Urbani” value came out at 0.4, the “Binding of serum London to looped/cyclic peptides of protein E of SARS-CoV Urbani” value worked out at 0.3, the “Binding of serum SARS-green to linear peptides of protein E of SARS-CoV Urbani” value amounted to 0.4 and the “Binding of serum SARS-green to looped/cyclic peptides of protein E of SARS-CoV Urbani” value was found to be 0.2. In assay [1], the “Binding of serum SARS-yellow to linear peptides of protein E of SARS-CoV Urbani” value was 0.3 and the “Binding of serum SARS-yellow to looped/cyclic peptides of protein E of SARS-CoV Urbani” value was determined as 0.5. For the same sequence, in assay [2], the “Binding of a rabbit serum to linear peptides” value worked out at 0.5 and the “Binding of a rabbit serum to looped peptides” value is recorded as 0.3. For the same sequence, in assay [3], the “Binding of Control Serum Blood-Bank to Looped peptides” value was determined as 0.8, the “Binding of Control serum Blood-bank to linear peptides” value was found to be 0.5, the “Binding of Control serum LUMC to linear peptides” value stood at 0.3 and the “Binding of Control serum LUMC to looped peptides” value was 0.8.
